Values of other authors, collected in article doi:10.1101/2025.04.01.646723v2 (bioRxiv, 2025).

Test system: N. benthamiana leaves
Settings: DCIP, 100 μM, at least 5 biological replicates, ref [15]

nona-arginine [R9]
cellular internalization (in words): efficiently internalized
